Reference: patent publication US9586896B2, “Nitroxyl donors with improved therapeutic index” (Cardioxyl Pharmaceuticals, Inc., priority 2013, dated 2017)
Read-outs that look alike come from different tables or passages of the source.

Legend:
[1] = Solubility by visual assessment in pH 4 buffer; format: physicochemical; conditions: pH 4 citrate buffer, pH 4, aqueous buffer, thermodynamic from solid, shaken 5 minutes
Method: Initially, the solubilities of the compounds of formula (1) and formula (2) were measured by visual assessment at 100 μg/mL and 1000 μg/mL in a pH 4 buffer. The buffer was prepared by mixing 660 mL of Solution A (10.5023 g of citric acid dissolved in 1 L of water) and […] of Solution B (14.7010 g of sodium citrate tribasic dihydrate dissolved in 1 L of water). The pH of the buffer was 3.98 as measured by pH meter. Each compound was shaken for about 5 minutes in the pH 4 buffer solution prepared above at two concentration points (100 μg/mL and 1000 μg/mL) and the solubility was observed visually.

[2] = system: normal canines; assay: Hemodynamic efficacy (PV loop analysis) in normal canines; format: in vivo, beagle dogs; conditions: i.v. infusion
Method: The cardiovascular effects of nitroxyl donors were examined by means of pressure-volume (PV) curve (loops) analysis in conscious, sling-restrained beagle dogs. Animals were allowed free access to drinking water and a commercial canine diet under standard laboratory conditions. Fluorescent lighting was provided via an automatic timer for approximately 12 hours per day. On occasion, the dark cycle was interrupted intermittently due to study-related activities. Temperature and humidity were monitored and recorded daily and maintained to the maximum extent possible between 64° F. and 84° F. and 30% to 70%, respectively. The dogs were acclimated for a period of at least 1 week prior to surgery. Following surgery and recovery the animals were acclimated to sling restraint for a period up to 4.5 hours. Animals were fasted overnight prior to surgery.
Once a stable (surgical) plane of anesthesia had been established, a left-thoracotomy was performed (under strict aseptic conditions) and each animal was chronically instrumented with sono-micrometry crystals providing left-ventricular (LV) dimensions/volume. Additionally, a fluid-filled catheter and a solid-state monometer were placed in the left ventricle for pressure monitoring. A fluid-filled catheter was placed in the right ventricle (RV) and the aorta (Ao) for pressure monitoring/test article administration. […] The catheters/wires were aseptically tunneled and externalized between the scapulae. Over the course of the study, fluid-filled catheters were regularly (at least once weekly) flushed with a locking-solution in order to prevent both clotting and bacterial growth (2-3 mL of Taurolidine-Citrate solution, TCS-04; Access Technologies).
The animals (normal or heart failure) were studied during treatment with both vehicle (control) and a nitroxyl donor (either CXL-1020, a compound of formula (1) or a compound of formula (2)). At each dosing period, conscious sling-restrained animals were continuously monitored for up to two to three hours. Following hemodynamic stabilization, infusion of the vehicle was started. […] Infusion of the vehicle was continued and after 30 min another (baseline) set of hemodynamic data was collected. Following collection of baseline hemodynamic data, infusion of the nitroxyl donor compound being tested was initiated and derived hemodynamic/functional parameters were obtained/performed at up to four (4) time points selected from the following: at 30, 60, 90, 120, and 180 minutes after the onset of vehicle/test compound infusion. For the placebo or time-control treatment group, each animal was administered an infusion of an appropriate placebo for up to 180 minutes. In all cases, the test compound was delivered at a constant intravenous infusion rate of 1 mL/kg/hr and was compared at a molar equivalent dose rate.
The resulting left-ventricular pressure and volume data were analyzed in order to generate relationships representing the contractile and energetic state of the myocardium. Systolic arterial pressure (SAP), diastolic arterial pressure (DAP), and mean arterial pressure (MAP) were collected. Left-ventricular mechanical and/or geometrical indices were obtained from the pressure (ESP, EDP, dP/dt max/min, time-constant of relaxation-tau [based on mono-exponential decay with non-zero asymptote]) and volume (end-systolic volume (ESV), end diastolic volume (EDV), stroke volume (SV)) signal. In addition, the following measurements were derived from left-ventricular pressure-volume data (PV loops) generated during brief periods of preload reduction: pressure volume area (PVA) and stroke work (SW), end-systolic (ESPVR) and end-diastolic (EDPVR) pressure volume relationships, and end systolic pressure and stroke volume relationship (arterial elastance (Ea)). Representative data obtained from studies in normal dogs and heart failure dogs is shown in Table 5 and Table 6, respectively. A SVR (systemic vascular resistance) decrease correlates with vasodilation.

[3] = system: dogs; assay: 72-hour continuous infusion investigative studies of CXL-1020 in dogs (implanted catheter); format: in vivo; conditions: 72-hour infusion
Method: To determine the cause of the inflammation and hind limb swelling, a series of 72-hour continuous infusion investigative studies were conducted over the following 6 months. […] The first site of inflammation, the catheter insertion site, caused the dog hind limb swelling and inflammation observed in the early-terminated follow-up study. Increasing infusate pH from 4 to 6 decreased inflammation, improving the inflammatory profile by approximately 3-fold.

[4] = system: heart failure canines (microembolization model); assay: Hemodynamic efficacy in canine microembolization heart failure model; format: in vivo, mongrel dogs; conditions: 3 or 10 μg/kg/min infusion, FIG. 3
Method: Heart failure was produced using healthy, conditioned, purpose-bred mongrel dogs (20-26 kg) using a sequential microembolization model. Coronary microembolization was performed until LV-ejection fraction (determined angiographically under anesthesia) was approximately 30% or lower. Two weeks were then provided after the last microembolization to ensure stabilization of each animal prior to initiating experiments.
An initial dose-finding study (2-100 μg/kg/min for 40 min) was performed in 3 dogs to identify therapeutically relevant doses of a compound of formula (1). […] Only one dose was studied on a given day, the other at least one-week later, and the order randomized. […]
LV end-systolic volume (ESV) and end-diastolic volumes (EDV) were calculated from ventriculograms using the area-length method. […] LV fractional area of shortening (FAS) was measured from LV short axis view at the level of papillary muscles obtained from 2-dimensional echocardiograms. Measured indexes of LV diastolic function included deceleration time of mitral inflow velocity (DT), ratio of the integral of early mitral inflow velocity (Ei) to velocity during atrial contraction (Ai) (Ei/Ai) and LV end-diastolic circumferential wall stress (EDWS).
Measurements of myocardial oxygen consumption were performed at baseline and at 4 hours after 10 μg/kg/min infusion. […] Oxygen content was determined with a hemoximeter. […]

[5] = 100 μg/mL, read-out: Solubility (100 μg/mL)
[6] = 1000 μg/mL, read-out: Solubility (1000 μg/mL)
[7] = dose rate 50 (μmol/kg/min [sic])

Structure (SMILES) | solubility at 5 min [1, 5] [µg/mL] | solubility at 5 min [1, 6] [µg/mL] | Tau (% Change from Baseline) ([2]; dose rate 100 (μmol/kg/min [sic])) [%] | improvement of the inflammatory profile on increasing infusate pH from 4 to 6 [3] | dose rates at which significant undesirable side effects were still demonstrated ([3]; infusate pH 6) | dose rates causing clinical pathology changes consistent with an inflammatory process ([3]; pH 4 formulation, 1:1 molar CXL-1020:CAPTISOL in 5% dextrose) | hemodynamic activity relative to CXL-1020 [4] | EDV (% Change from Baseline) [2, 7] [%] | ESP (% Change from Baseline) [2, 7] [%] | ESPVR (% Change from Baseline) [2, 7] [%] | HR (% Change from Baseline) [2, 7] [%] | PRSW (% Change from Baseline) [2, 7] [%] | SW (% Change from Baseline) [2, 7] [%] | Tau (% Change from Baseline) [2, 7] [%]
CS(=O)(=O)c1cccc(S(=O)(=O)NO)c1 [(2), N-Hydroxy-3-methanesulfonylbenzene-1-sulfonamide] | > 100 | > 1000 | −6.40 ± 7.11 | – | – | – | – | – | – | – | – | – | – | –
CS(=O)(=O)c1ccccc1S(=O)(=O)NO [CXL-1020, N-hydroxy-2-methanesulfonylbenzene-1-sulfonamide] | – | – | – | approximately 3 fold | greater than or equal to 3 μg/kg/min | greater than or equal to 0.03 μg/kg/min | – | – | – | – | – | – | – | –
Cc1ccc(S(=O)(=O)NO)o1 [Compound (1), N-Hydroxy-5-methylfuran-2-sulfonamide] | > 100 | > 1000 | – | – | – | – | comparable hemodynamic activity to CXL-1020 | −6 ± 2 | −18 ± 2 | 19 ± 1 | −4 ± 2 | 12 ± 1 | −11 ± 4 | −6 ± 1
